Experimental data as given in ChEMBL document CHEMBL1201862, “PubChem BioAssay data set” (2004).
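How tested: cells in 96-well plates exposed to compound for 48 hours at five concentrations. At the GI50, growth is halved.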 Activity calls are given as the source filed them. Rule as the data show it: active = GI50 up to about 1.1 µM and inactive = higher.

Legend:
Test in all cases: growth of human tumour cells (NCI), 48 h
COLO 205 = test system: COLO 205
DU-145 = test system: DU-145
HCC 2998 = test system: HCC 2998
HOP-92 = test system: HOP-92
Hs-578T = test system: Hs-578T
K562 = test system: K562
KM12 = test system: KM12
MDA-MB-435 = test system: MDA-MB-435
MOLT-4 = test system: MOLT-4
NCI-H23 = test system: NCI-H23
NCI-H460 = test system: NCI-H460
OVCAR-5 = test system: OVCAR-5
RXF 393 = test system: RXF 393
SF-295 = test system: SF-295
SF-539 = test system: SF-539
SNB-19 = test system: SNB-19
SR = test system: SR
SW-620 = test system: SW-620
T47D = test system: T47D
U-251 = test system: U-251

Structure (SMILES)	GI50 (COLO 205)	GI50 (DU-145)	GI50 (HCC 2998)	GI50 (HOP-92)	GI50 (Hs-578T)	GI50 (K562)	GI50 (KM12)	GI50 (MDA-MB-435)	GI50 (MOLT-4)	GI50 (NCI-H23)	GI50 (NCI-H460)	GI50 (OVCAR-5)	GI50 (RXF 393)	GI50 (SF-295)	GI50 (SF-539)	GI50 (SNB-19)	GI50 (SR)	GI50 (SW-620)	GI50 (T47D)	GI50 (U-251)
Nc1nc(N)c2cc(CNc3ccc(C(=O)NC(CC(=O)O)C(=O)O)c(Cl)c3)ccc2n1 (stereo not given)	0.861 µM (active)	0.0501 µM (active)	1.43 µM (inactive)	> 87.5 µM (inactive)	357 µM (inactive)	< 0.0192 µM (active)	0.0796 µM (active)	< 0.01 µM (active)	0.0175 µM (active)	0.117 µM (active)	0.0256 µM (active)	0.191 µM (active)	61 µM (inactive)	0.0698 µM (active)	0.313 µM (active)	0.248 µM (active)	0.05 µM (active)	< 0.0103 µM (active)	0.524 µM (active)	0.0556 µM (active)
CCOC(=O)CCC(NC(=O)c1ccc(Nc2cnc3ccc(C(F)(F)F)cc3n2)cc1)C(=O)OCC (stereo not given)	> 100 µM (inactive)	> 26 µM (inactive)	81.1 µM (inactive)	8.36 µM (inactive)	6.79 µM (inactive)	> 100 µM (inactive)	24.2 µM (inactive)	> 80.9 µM (inactive)	2.2 µM (inactive)	35 µM (inactive)	8.02 µM (inactive)	> 100 µM (inactive)	15 µM (inactive)	31.1 µM (inactive)	13.3 µM (inactive)	13 µM (inactive)	> 100 µM (inactive)	> 70.6 µM (inactive)	5.45 µM (inactive)	11.6 µM (inactive)
O=C1C(Br)=Cc2c(Cl)sc(Cl)c21	6.76 µM (inactive)	5.42 µM (inactive)	2.37 µM (inactive)	2.84 µM (inactive)	21.8 µM (inactive)	1.07 µM (active)	6.5 µM (inactive)	2.11 µM (inactive)	0.515 µM (active)	8.85 µM (inactive)	18.3 µM (inactive)	13.3 µM (inactive)	2.46 µM (inactive)	24 µM (inactive)	4.24 µM (inactive)	18.9 µM (inactive)	2.15 µM (inactive)	2.19 µM (inactive)	2.42 µM (inactive)	2.59 µM (inactive)
CC1=CCC([C@@](C)(O)CCCC(C)(C)N=C=S)CC1 (stereo not given in full)	16.1 µM (inactive)	16.4 µM (inactive)	18.2 µM (inactive)	18.5 µM (inactive)	26.5 µM (inactive)	19.3 µM (inactive)	15.5 µM (inactive)	17.1 µM (inactive)	21.5 µM (inactive)	20.9 µM (inactive)	16.5 µM (inactive)	19.4 µM (inactive)	13.7 µM (inactive)	19.4 µM (inactive)	19.2 µM (inactive)	17.3 µM (inactive)	19.8 µM (inactive)	18.3 µM (inactive)	21 µM (inactive)	18.8 µM (inactive)
O=C(CC1(O)C(=O)Nc2c(Cl)cc(Cl)cc21)c1cccc([N+](=O)[O-])c1 (stereo not given)	33.3 µM (inactive)	> 100 µM (inactive)	> 45.2 µM (inactive)	23.2 µM (inactive)	30.6 µM (inactive)	19.8 µM (inactive)	24.5 µM (inactive)	5.12 µM (inactive)	19.8 µM (inactive)	19.4 µM (inactive)	39.9 µM (inactive)	55.7 µM (inactive)	28.6 µM (inactive)	31 µM (inactive)	27.9 µM (inactive)	> 73.1 µM (inactive)	51.9 µM (inactive)	20.1 µM (inactive)	63.5 µM (inactive)	27.7 µM (inactive)
